From patent US20220184041A1, “(AZA)Benzothiazolyl Substituted Pyrazole Compounds” (Pfizer Inc., priority 2020, published 2022) come the findings set out here.

pEC50: −log10 of the molar value. Read-outs that look alike come from different tables or passages of the source.

The target in experiment [1] is T1, human TTR (biotinylated recombinant protein) (Homo sapiens, UniProt P02766).
T1 construct: biotin (biotinylated)
In words: TTR SPA binding assay ([3H] tafamidis displacement), EC50 determination. To be noted: read-out: Geometric Mean EC50. Here is the method: Binding of Examples to Transthyretin—EC50 Determination
Briefly, assays were prepared at room temperature in 384-well plates (Corning, 3767) containing 200 nL of test compound in DMSO (or DMSO as vehicle). […] The plates were incubated 1 hour prior to addition of 20 μL of 1.25 mg/mL SPA beads diluted in assay buffer. The assays were incubated an additional 10 hours to allow binding to reach equilibrium and the amount of receptor-ligand complex was determined by liquid scintillation counting using a 1450 Microbeta Trilux (Wallac).
The % effect values for test wells were calculated based on the total binding (vehicle, 0% effect) and non-specific binding (unlabeled ligand, 100% effect) wells on each assay plate. EC50 values were then determined using a standard 4 parameter logistic dose response equation.

Experiment [2] addresses Recombinant wild-type TTR (Homo sapiens, UniProt P02766). In words: KD determination by ITC (Isothermal Titration Calorimetry). To be noted: 25° C., sequential binding model with 2 sites. Here is the method: KD Determination by ITC—Isothermal Titration Calorimetry
Recombinant wild-type TTR was diluted to 6.9 μM in 100 mM potassium chloride, 10 mM sodium phosphate pH 7.6, 2.5% DMSO, then degassed and transferred to the sample cell of a VP-ITC instrument (MicroCal). Compounds were diluted to 120 μM in an identical buffer, degassed, and injected 7 μL at a time into the protein solution at 25° C. with a reference power of 10 μCal/sec and 300 second spacing between injections.
Data were analyzed using VP-ITC analysis software in Origin. The data were corrected for heat of dilution then fit to a sequential binding model with 2 sites and K1, ΔH1, K2, and ΔH2 as independent parameters. If necessary, the protein concentration was adjusted by fitting the data to a two-independent-sites model and using the calculated N values to estimate the actual protein concentration that yields two total sites.

Experiment [3] has as its target T2, Bap-tagged TTR protein (Homo sapiens, UniProt P02766).
T2 construct: Bap tag (biotin acceptor peptide, by own knowledge)
In words: KD determination by SPR (Surface Plasmon Resonance binding assay). To be noted: for Kd: 1:1 binding model, read-out: Geometric Mean KD (μM) [SPR]. Here is the method: Affinity and Reversibility—The binding affinity and kinetics of binding were measured using Surface Plasmon Resonance based binding assay. […] Bap-tagged TTR protein was captured on a Streptavidin coated sensor chip to achieve about 2000 to 3000 RUs of surface density. All the samples were prepared in buffer consisting of 10 mM Sodium Phosphate, pH 7.6, 100 mM KCl, 0.005% Tween-20 and 2% DMSO. The same buffer was used as the running buffer during the experiments. Compound samples were injected at a flow rate of 30 μL/min for 90 seconds of association time followed by at least 240 seconds of dissociation period. The compounds were tested in a concentration series consisting of at least 6 samples (usually 10) made with 5-fold, 3-fold, or 2-fold dilution. […] Multiple blank injections were run before and after each compound series to allow double reference subtraction during data processing and analysis. […] A DMSO curve was run during each experiment to properly correct for excluded volume.

[4] abbreviates: SPA, 50 nM [3H] tafamidis, 100 ng human TTR.
The mark [5] stands for this setting: first site, read-out: Geometric Mean KD1 (μM) [ITC].
[6] abbreviates: second site, read-out: Geometric Mean KD2 (μM) [ITC].

One may read the pEC50 as the negative decadic logarithm of the EC50, by convention in mol/L. Turning to `Cc1n[nH]c(C)c1-c1cccc2scnc12` [Example 1, 4-(3,5-dimethyl-1H-pyrazol-4-yl)-1,3-benzothiazole], the pEC50 in experiment [1] (setting [4]) was 7.51. Besides, the results for the Kd in experiment [2] (setting [5]), in experiment [2] (setting [6]) and in experiment [3] were 0.025 µM, 0.458 µM and 0.039 µM, respectively.

`Cc1n[nH]c(C)c1-c1cccc2ncsc12` [Example 2, 7-(3,5-dimethyl-1H-pyrazol-4-yl)-1,3-benzothiazole]: the Kd in experiment [2] (setting [5]) came out at 0.005 µM; in experiment [2] (setting [6]), 0.431 µM.

Take `Cc1n[nH]c(C)c1-c1ccc(C)c2scnc12` [Example 3, 4-(3,5-dimethyl-1H-pyrazol-4-yl)-7-methyl-1,3-benzothiazole]: in experiment [1] (setting [4]), the pEC50 is 7.70. The Kd in experiment [3] came to 0.02 µM.

In the case of `Cc1n[nH]c(C)c1-c1ccc(C(F)(F)F)c2scnc12` [Example 4, 4-(3,5-dimethyl-1H-pyrazol-4-yl)-7-(trifluoromethyl)-1,3-benzothiazole], in experiment [1] (setting [4]), the pEC50 was 7.40. In addition, in experiment [3], the Kd was 0.049 µM.

Consider `Cc1n[nH]c(C)c1-c1ccc(C#N)c2scnc12` [Example 5, 4-(3,5-dimethyl-1H-pyrazol-4-yl)-1,3-benzothiazole-7-carbonitrile], for which the pEC50 in experiment [1] (setting [4]) is 7.28. Also, in experiment [3], the Kd turned out to be 0.052 µM.

As for `Cc1nc2c(-c3c(C)n[nH]c3C)cccc2s1` [Example 6, 4-(3,5-dimethyl-1H-pyrazol-4-yl)-2-methyl-1,3-benzothiazole], in experiment [1] (setting [4]), the pEC50 is 5.75. Also, the Kd in experiment [3] worked out at 0.574 µM.

In the case of `Cc1[nH]nc(C#N)c1-c1cccc2scnc12` [Example 7, 4-(1,3-benzothiazol-4-yl)-5-methyl-1H-pyrazole-3-carbonitrile], the pEC50 in experiment [1] (setting [4]) is 7.18. The Kd in experiment [3] was 0.074 µM.

`Cc1[nH]nc(C#N)c1-c1ccc(C)c2scnc12` [Example 8, 5-methyl-4-(7-methyl-1,3-benzothiazol-4-yl)-1H-pyrazole-3-carbonitrile]: in experiment [1], the pEC50 was 7.71. Moreover, in experiment [3], the Kd came out at 0.027 µM.

In the case of `Cc1[nH]nc(C#N)c1-c1ccc(C(F)(F)F)c2scnc12` [Example 9, 5-methyl-4-[7-(trifluoromethyl)-1,3-benzothiazol-4-yl]-1H-pyrazole-3-carbonitrile], the pEC50 in experiment [1] is 7.45. Moreover, the Kd in experiment [3] turned out to be 0.62 µM.

As to `Cc1n[nH]c(C)c1-c1nccc2scnc12` [Example 10, 4-(3,5-dimethyl-1H-pyrazol-4-yl)[1,3]thiazolo[4,5-c]pyridine], the pEC50 in experiment [1] (setting [4]) is 6.05. Further, the Kd in experiment [3] came out at 0.297 µM.

For the molecule `COc1ccc(-c2c(C)n[nH]c2C)c2ncsc12` [Example 11, 4-(3,5-dimethyl-1H-pyrazol-4-yl)-7-methoxy-1,3-benzothiazole], the pEC50 in experiment [1] (setting [4]) was 7.44.

As for `Cc1n[nH]c(C)c1-c1ccc(F)c2scnc12` [Example 12, 4-(3,5-dimethyl-1H-pyrazol-4-yl)-7-fluoro-1,3-benzothiazole], in experiment [1] (setting [4]), the pEC50 is 7.43.

In the case of `Cc1cc(-c2c(C)n[nH]c2C)c2ncsc2c1` [Example 13, 4-(3,5-dimethyl-1H-pyrazol-4-yl)-6-methyl-1,3-benzothiazole], the pEC50 in experiment [1] is 7.67. The Kd in experiment [3] amounted to 0.058 µM.

Consider `COc1cc(-c2c(C)n[nH]c2C)c2ncsc2c1` [Example 14, 4-(3,5-dimethyl-1H-pyrazol-4-yl)-6-methoxy-1,3-benzothiazole], for which the pEC50 in experiment [1] was 7.61. The Kd in experiment [3] was determined as 0.031 µM.

As to `Cc1n[nH]c(C)c1-c1cc(F)cc2scnc12` [Example 15, 4-(3,5-dimethyl-1H-pyrazol-4-yl)-6-fluoro-1,3-benzothiazole], the pEC50 in experiment [1] was 7.69. Besides, the Kd in experiment [3] is 0.027 µM.

Take `Cc1n[nH]c(C)c1-c1cc(C#N)cc2scnc12` [Example 16, 4-(3,5-dimethyl-1H-pyrazol-4-yl)-1,3-benzothiazole-6-carbonitrile]: the pEC50 in experiment [1] (setting [4]) was 6.80.

In the case of `Cc1n[nH]c(C)c1-c1c(F)ccc2scnc12` [Example 17, 4-(3,5-dimethyl-1H-pyrazol-4-yl)-5-fluoro-1,3-benzothiazole], in experiment [1] (setting [4]), the pEC50 was 7.54.

Turning to `Cc1[nH]nc(C(F)(F)F)c1-c1cccc2scnc12` [Example 18, 4-[5-methyl-3-(trifluoromethyl)-1H-pyrazol-4-yl]-1,3-benzothiazole], the pEC50 in experiment [1] (setting [4]) was 6.88.

On to `Cc1n[nH]c(C)c1-c1ccnc2scnc12` [Example 19, 7-(3,5-dimethyl-1H-pyrazol-4-yl)[1,3]thiazolo[5,4-b]pyridine], for which, in experiment [1] (setting [4]), the pEC50 is 6.78.

For the molecule `O=C(O)c1ccc2nc(-c3cc(Cl)cc(Cl)c3)oc2c1` [tafamidis, 2-(3,5-dichlorophenyI)-1,3-benzoxazole-6-carboxylic acid, reference compound], in experiment [3], the “reversibility of binding to TTR” value is recorded as “reversible”. In experiment [3] (tafamidis binding to TTR, n=24), this molecule registered a t1/2 of 40.8 s.
